# Measurements: PubChem BioAssay (NCI)
#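 Protocol summary: plate cells (96-well), add compound at 5 concentrations, incubate 48 h, interpolate endpoints linearly. The concentration for full growth arrest is given as TGI.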
# How the values were obtained:
# Assay in all cases: NCI tumour cell line growth inhibition, 48 h
# 786-0 renal = system: 786-0 renal
# A498 renal = system: A498 renal
# A549 NSCLC = system: A549 NSCLC
# ACHN renal = system: ACHN renal
# CAKI-1 renal = system: CAKI-1 renal
# CCRF-CEM leukemia = system: CCRF-CEM leukemia
# COLO 205 colon = system: COLO 205 colon
# DLD-1 colon = system: DLD-1 colon
# DMS 114 small cell lung = system: DMS 114 small cell lung
# EKVX NSCLC = system: EKVX NSCLC
# HCC-2998 colon = system: HCC-2998 colon
# HCT-116 colon = system: HCT-116 colon
# HCT-15 colon = system: HCT-15 colon
# HL-60(TB) leukemia = system: HL-60(TB) leukemia
# HOP-18 NSCLC = system: HOP-18 NSCLC
# HOP-62 NSCLC = system: HOP-62 NSCLC
# HOP-92 NSCLC = system: HOP-92 NSCLC
# HT29 colon = system: HT29 colon
# IGROV1 ovarian = system: IGROV1 ovarian
# K-562 leukemia = system: K-562 leukemia
# KM12 colon = system: KM12 colon
# KM20L2 colon = system: KM20L2 colon
# LOX IMVI melanoma = system: LOX IMVI melanoma
# LXFL 529 NSCLC = system: LXFL 529 NSCLC
# M14 melanoma = system: M14 melanoma
# M19-MEL melanoma = system: M19-MEL melanoma
# MALME-3M melanoma = system: MALME-3M melanoma
# MOLT-4 leukemia = system: MOLT-4 leukemia
# NCI-H226 lung = system: NCI-H226 lung
# NCI-H23 lung = system: NCI-H23 lung
# NCI-H460 lung = system: NCI-H460 lung
# NCI-H522 lung = system: NCI-H522 lung
# OVCAR-3 ovarian = system: OVCAR-3 ovarian
# OVCAR-5 ovarian = system: OVCAR-5 ovarian
# OVCAR-8 ovarian = system: OVCAR-8 ovarian
# RPMI-8226 leukemia = system: RPMI-8226 leukemia
# RXF 393 renal = system: RXF 393 renal
# RXF-631 renal = system: RXF-631 renal
# SF-268 CNS = system: SF-268 CNS
# SF-295 CNS = system: SF-295 CNS
# SF-539 CNS = system: SF-539 CNS
# SK-MEL-28 melanoma = system: SK-MEL-28 melanoma
# SK-MEL-5 melanoma = system: SK-MEL-5 melanoma
# SK-OV-3 ovarian = system: SK-OV-3 ovarian
# SN12C renal = system: SN12C renal
# SNB-19 CNS = system: SNB-19 CNS
# SNB-75 CNS = system: SNB-75 CNS
# SR leukemia = system: SR leukemia
# SW-620 colon = system: SW-620 colon
# TK-10 renal = system: TK-10 renal
# U251 CNS = system: U251 CNS
# UACC-257 melanoma = system: UACC-257 melanoma
# UACC-62 melanoma = system: UACC-62 melanoma
# UO-31 renal = system: UO-31 renal
# XF 498 CNS = system: XF 498 CNS
# DMS 273 small cell lung = system: DMS 273 small cell lung
# MCF7 breast = system: MCF7 breast
# NCI/ADR-RES ovarian = system: NCI/ADR-RES ovarian
# OVCAR-4 ovarian = system: OVCAR-4 ovarian
# P388 leukemia = system: P388 leukemia
# P388/ADR leukemia = system: P388/ADR leukemia
# SK-MEL-2 melanoma = system: SK-MEL-2 melanoma
# SN12K1 renal = system: SN12K1 renal
# SNB-78 CNS = system: SNB-78 CNS
smiles,measurement,setting,value
COc1ccc(C(=O)CC2=Nc3nnc(CCCCCCCc4nnc5n4C(=O)C(CC(=O)c4ccc(OC)cc4)=N5)n3C2=O)cc1,TGI,786-0 renal,> 100 µM
same,TGI,A498 renal,> 100 µM
same,TGI,A549 NSCLC,> 100 µM
same,TGI,ACHN renal,> 100 µM
same,TGI,CAKI-1 renal,> 100 µM
same,TGI,CCRF-CEM leukemia,> 100 µM
same,TGI,COLO 205 colon,> 100 µM
same,TGI,DLD-1 colon,> 100 µM
same,TGI,DMS 114 small cell lung,> 100 µM
same,TGI,EKVX NSCLC,> 100 µM
same,TGI,HCC-2998 colon,> 100 µM
same,TGI,HCT-116 colon,> 100 µM
same,TGI,HCT-15 colon,> 100 µM
same,TGI,HL-60(TB) leukemia,> 100 µM
same,TGI,HOP-18 NSCLC,> 100 µM
same,TGI,HOP-62 NSCLC,> 100 µM
same,TGI,HOP-92 NSCLC,> 100 µM
same,TGI,HT29 colon,> 100 µM
same,TGI,IGROV1 ovarian,> 100 µM
same,TGI,K-562 leukemia,> 100 µM
same,TGI,KM12 colon,> 100 µM
same,TGI,KM20L2 colon,> 100 µM
same,TGI,LOX IMVI melanoma,> 100 µM
same,TGI,LXFL 529 NSCLC,> 100 µM
same,TGI,M14 melanoma,> 100 µM
same,TGI,M19-MEL melanoma,> 100 µM
same,TGI,MALME-3M melanoma,> 100 µM
same,TGI,MOLT-4 leukemia,> 100 µM
same,TGI,NCI-H226 lung,> 100 µM
same,TGI,NCI-H23 lung,> 100 µM
same,TGI,NCI-H460 lung,> 100 µM
same,TGI,NCI-H522 lung,> 100 µM
same,TGI,OVCAR-3 ovarian,> 100 µM
same,TGI,OVCAR-5 ovarian,> 100 µM
same,TGI,OVCAR-8 ovarian,> 100 µM
same,TGI,RPMI-8226 leukemia,> 100 µM
same,TGI,RXF 393 renal,> 100 µM
same,TGI,RXF-631 renal,> 100 µM
same,TGI,SF-268 CNS,> 100 µM
same,TGI,SF-295 CNS,> 100 µM
same,TGI,SF-539 CNS,> 100 µM
same,TGI,SK-MEL-28 melanoma,> 100 µM
same,TGI,SK-MEL-5 melanoma,> 100 µM
same,TGI,SK-OV-3 ovarian,> 100 µM
same,TGI,SN12C renal,> 100 µM
same,TGI,SNB-19 CNS,> 100 µM
same,TGI,SNB-75 CNS,> 100 µM
same,TGI,SR leukemia,> 100 µM
same,TGI,SW-620 colon,> 100 µM
same,TGI,TK-10 renal,> 100 µM
same,TGI,U251 CNS,> 100 µM
same,TGI,UACC-257 melanoma,> 100 µM
same,TGI,UACC-62 melanoma,> 100 µM
same,TGI,UO-31 renal,> 100 µM
same,TGI,XF 498 CNS,> 100 µM
COc1cc2c(cc1Oc1c(Oc3c(O)c(OC)cc4c3C(CC(C)C)N(C)CC4)c(OC)cc3c1C(CC(C)C)N(C)CC3)C(CC(C)C)N(C)CC2 (stereo unspecified),TGI,A498 renal,0.304 µM
same,TGI,A549 NSCLC,6.39 µM
same,TGI,CAKI-1 renal,4.5 µM
same,TGI,CCRF-CEM leukemia,6.3 µM
same,TGI,COLO 205 colon,0.837 µM
same,TGI,DLD-1 colon,14.2 µM
same,TGI,DMS 114 small cell lung,6.52 µM
same,TGI,DMS 273 small cell lung,4.21 µM
same,TGI,EKVX NSCLC,2.18 µM
same,TGI,HCC-2998 colon,5.17 µM
same,TGI,HCT-116 colon,3.85 µM
same,TGI,HCT-15 colon,12.9 µM
same,TGI,HL-60(TB) leukemia,8.16 µM
same,TGI,HOP-18 NSCLC,17.1 µM
same,TGI,HOP-62 NSCLC,3.76 µM
same,TGI,HOP-92 NSCLC,7.87 µM
same,TGI,HT29 colon,5.61 µM
same,TGI,IGROV1 ovarian,15.1 µM
same,TGI,K-562 leukemia,5.65 µM
same,TGI,KM12 colon,3.78 µM
same,TGI,KM20L2 colon,7.12 µM
same,TGI,LOX IMVI melanoma,5.52 µM
same,TGI,M19-MEL melanoma,2.58 µM
same,TGI,MALME-3M melanoma,7.39 µM
same,TGI,MCF7 breast,8.3 µM
same,TGI,MOLT-4 leukemia,4.05 µM
same,TGI,NCI-H226 lung,2.5 µM
same,TGI,NCI-H23 lung,4.91 µM
same,TGI,NCI-H460 lung,1.69 µM
same,TGI,NCI-H522 lung,3.58 µM
same,TGI,NCI/ADR-RES ovarian,14.1 µM
same,TGI,OVCAR-3 ovarian,11.4 µM
same,TGI,OVCAR-4 ovarian,8.15 µM
same,TGI,OVCAR-5 ovarian,17.7 µM
same,TGI,OVCAR-8 ovarian,8.24 µM
same,TGI,P388 leukemia,3.62 µM
same,TGI,P388/ADR leukemia,3.71 µM
same,TGI,RPMI-8226 leukemia,10.4 µM
same,TGI,RXF 393 renal,3.28 µM
same,TGI,SF-268 CNS,8.85 µM
same,TGI,SF-295 CNS,5.04 µM
same,TGI,SF-539 CNS,1.45 µM
same,TGI,SK-MEL-2 melanoma,3.67 µM
same,TGI,SK-MEL-28 melanoma,13.6 µM
same,TGI,SK-MEL-5 melanoma,0.832 µM
same,TGI,SK-OV-3 ovarian,11.8 µM
same,TGI,SN12C renal,3.53 µM
same,TGI,SN12K1 renal,3.79 µM
same,TGI,SNB-19 CNS,2.18 µM
same,TGI,SNB-75 CNS,3.01 µM
same,TGI,SNB-78 CNS,4.71 µM
same,TGI,SW-620 colon,8.28 µM
same,TGI,U251 CNS,6.22 µM
same,TGI,UACC-257 melanoma,11.5 µM
same,TGI,UACC-62 melanoma,4.02 µM
same,TGI,UO-31 renal,11.9 µM
